Results on 3 molecules are retold here after ChEMBL document CHEMBL1153065, “Synthesis, radiolabeling and preliminary in vivo evaluation of [18F]FE-PE2I, a new probe for the dopamine transporter” (Bioorg Med Chem Lett, 2009).

Structures are written as SMILES.

Series [1] addresses Sodium-dependent dopamine transporter (Rattus norvegicus, UniProt P23977). As to the kind of experiment: Displacement of [125I]PE2I from rat DAT. For orientation: Displacement assays read how much labelled ligand stays bound in the presence of the test substance.
A short description of series [2]: Ratio of drug uptake in cerebellum to putamen in cynomolgus monkey by GBR-12909 displacement assay. On the set-up: species or system Macaca fascicularis. As to conditions: in vivo.
The subject of another series is Plasma. Briefly: Metabolic stability in cynomolgus monkey venous plasma assessed as compound recovery by radio-HPLC. In kind it is ADME, cell-free, Macaca fascicularis.
Another series deals with Brain. As to the kind of experiment: Drug uptake in cynomolgus monkey brain at 59 MBq after 13 mins. In kind it is ADME, tissue-based, Macaca fascicularis. As to conditions: in vivo.
Series [3] is described as follows: Ratio of drug uptake in cerebellum to caudate in cynomolgus monkey at 59 MBq after 105 mins. As to conditions: in vivo, 1.75 h. In kind it is ADME, Macaca fascicularis.
The nature of series [4]: Ratio of drug uptake in cerebellum to putamen in cynomolgus monkey at 59 MBq after 105 mins. In kind it is ADME, Macaca fascicularis. The conditions noted are these: in vivo, 1.75 h.
A short description of series [5]: Ratio of drug uptake in cerebellum to caudate in cynomolgus monkey by GBR-12909 displacement assay. On the set-up: species or system Macaca fascicularis. The conditions noted are these: in vivo.

Sequence of Sodium-dependent dopamine transporter (P23977 whole entry): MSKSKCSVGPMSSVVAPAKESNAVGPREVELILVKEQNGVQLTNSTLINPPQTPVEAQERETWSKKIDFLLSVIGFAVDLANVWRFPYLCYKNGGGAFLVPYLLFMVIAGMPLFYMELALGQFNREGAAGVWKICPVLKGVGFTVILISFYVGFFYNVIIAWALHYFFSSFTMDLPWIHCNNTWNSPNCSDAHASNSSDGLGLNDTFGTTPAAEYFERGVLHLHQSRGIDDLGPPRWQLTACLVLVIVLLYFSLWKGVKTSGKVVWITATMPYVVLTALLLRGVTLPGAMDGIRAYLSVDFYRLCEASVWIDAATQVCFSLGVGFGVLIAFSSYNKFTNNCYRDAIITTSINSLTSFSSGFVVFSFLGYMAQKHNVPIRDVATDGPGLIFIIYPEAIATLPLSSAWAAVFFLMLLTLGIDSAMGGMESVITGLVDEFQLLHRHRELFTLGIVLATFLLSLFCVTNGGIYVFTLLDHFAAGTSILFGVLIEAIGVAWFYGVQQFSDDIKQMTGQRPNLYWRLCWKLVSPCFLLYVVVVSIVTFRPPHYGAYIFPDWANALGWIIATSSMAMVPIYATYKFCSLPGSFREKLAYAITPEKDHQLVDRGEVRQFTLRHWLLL

With `COC(=O)[C@H]1[C@@H](c2ccc(C)cc2)C[C@@H]2CC[C@H]1N2C/C=C/I`, in series [1], the Ki (as a rule, the equilibrium dissociation constant of an inhibitor or competing ligand from its target) was determined as 16 nM.

Consider `Cc1ccc([C@H]2C[C@@H]3CC[C@H]([C@H]2C(=O)OCC[18F])N3C/C=C/I)cc1`, for which the Ratio in series [2] turned out to be 1.3; in series [3], 7.5; in series [4], 7.9; in series [5], 1.4. Further, the Stability with Plasma stood at 91%. The molecule also had an SUV in the series with Brain of 540%.

For the molecule `Cc1ccc([C@H]2C[C@@H]3CC[C@H]([C@H]2C(=O)OCCF)N3C/C=C/I)cc1`, in series [1], the affinity, expressed as Ki, was 12 nM.
